Marks after values point to notes of the source that are not given here.
Columns and labels:
α4β1 integrin = α4β1 integrin (Homo sapiens, UniProt P05556+P13612); settings: unactivated and activated forms of α4β1 integrin; cited from earlier work
human term placentas = experiment: Yield of TNC, CD34+CD45dim cells and CFU from placenta infused with cell-liberating compounds; type: cell-based; settings: infusion in PBS+, incubated 3-8 hours at 37° C., mean, N = 5; for Yield of colony-forming unit cells (CFU) obtained from placenta related to cord blood unit from the same donor: Methocult 12-14 days
Text: HSCs and HPCs of the current invention were collected from 30 human term placentas by use of different cell-liberating compounds. Following IRB approval and informed consent, human term placentas were obtained from healthy females following caesarian section. Freshly obtained human placentas, which had been subjected to a conventional cord blood recovery process by draining substantially all of the cord blood from the placenta were used. Cord blood was collected from umbilical cord using standard techniques. Placentas were first infused with an anticoagulant/vasodilator solution (Heparin 30 […] 0.05 mg/ml) at a temperature of 20° C. For infusion procedures, artery and vein of umbilical cord were further cannulated and connected to a reservoir. Pressure in the umbilical cord artery and vein was constantly measured using Baxter pressure transducers (Protocol Systems, Portland, Oreg.). Constant temperature of infusate was maintained using heat exchange unit connected to temperature-controlled water bath. Placentas was infused with 100 ml phosphate buffered saline with additives: heparin (10 […]-acetyl-cysteine (1 mM), gentamycin (0.05 mg/ml) (PBS+) (Experiment 1), or 100 ml PBS+ with 3 mg/L AMD3100 (Sigma, St. Louis, Mo.) (Experiment 2); or 100 ml PBS+ with 1 mg/ml BIO5192 (Experiment 3). BIO5192 was supplied by AnorMED (Vancouver, BC) as a sterile powder and reconstituted in pH 7.0 ethanol:propylene glycol:water (10:36:54). In Experiment 4 100 ml PBS+ with 1 mg/ml Trypsin and 0.1 mg/ml Collagenase I (Sigma, St. Louis, Mo.) was infused into the placental artery or vein. In Experiment 5 100 ml PBS+ with Etoposide (1 mM) was infused into placental vein. […] Following incubation, fluid with cells was drained out of placental vessels and umbilical vein was infused with 100 ml of PBS and later flushed out 4 times via the umbilical artery. Collected cell suspension was centrifuged for 10 min at 1000 rpm, cells at the bottom collected and reconstituted in 10 ml PBS with heparin for further analyses. The following analyses were performed on cord blood and cell suspensions obtained from placenta: number of total nucleated cells determined by flow cytometry, number of CD34^+ and CD34^+CD45^dim cells determined by immunostaining with antibodies to CD34 and CD45, flow cytometry performed using FACS Calibur flow cytometer (BD Biosciences) and FlowJo software. Amounts of colony-forming unit cells were determined by culturing cells for 12-14 days in Methocult® medium (Stem Cell Technologies, Vancouver, Canada) according to manufacturer's instruction. Data obtained from cells collected from placental circulation were normalized to same variables obtained by analyses of cord blood cells (cord blood unit) collected from the corresponding placenta and are presented as percent of cord blood unit.

[1] = target: T1, α4-subunit of the α4β1 (VLA-4) and α4β7 integrins (Homo sapiens, UniProt P13612); settings: MS patients after anti-α4 integrin antibody administration; cited from earlier work
T1 construct: host or cells: MS patients (in vivo, endogenous protein)

CXCR4 = CXCR4 (Homo sapiens, UniProt P61073); settings: in vivo; cited from earlier work
human placenta = settings: 6-8 hour vascular perfusion of placenta; cited from earlier work

Chain of CXCR4 (P61073 whole entry, species assumed, the tested form may be a part): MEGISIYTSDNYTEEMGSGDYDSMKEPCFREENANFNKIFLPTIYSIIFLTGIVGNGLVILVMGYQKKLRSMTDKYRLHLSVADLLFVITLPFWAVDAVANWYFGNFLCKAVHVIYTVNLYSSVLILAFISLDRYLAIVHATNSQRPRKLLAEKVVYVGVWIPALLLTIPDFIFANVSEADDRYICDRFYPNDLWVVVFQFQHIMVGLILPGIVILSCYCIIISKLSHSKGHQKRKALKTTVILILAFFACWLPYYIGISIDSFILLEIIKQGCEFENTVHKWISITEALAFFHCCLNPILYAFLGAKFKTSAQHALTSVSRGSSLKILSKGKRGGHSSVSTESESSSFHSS

Molecule	Kd (α4β1 integrin) [nM]	Yield of colony-forming unit cells (CFU) obtained from placenta related to cord blood unit from the same donor (human term placentas)	Yield of CD34+CD45dim cells obtained from placenta related to cord blood unit from the same donor (human term placentas)	Yield of TNC obtained from placenta related to cord blood unit from the same donor (human term placentas) [%]	Circulating HSPCs [1]	Mobilization of hematopoietic stem cells from the bone marrow to the bloodstream (CXCR4)	Increase of yield of HSC from perfusate as compared to cord blood unit HSCs (human placenta)
Cc1ccccc1NC(=O)Nc1ccc(CC(=O)N(C)[C@@H](CC(C)C)C(=O)NCC[C@H](NC(=O)[C@@H]2CCCN2S(=O)(=O)c2cc(Cl)cc(Cl)c2)C(=O)O)cc1 [BIO5192]	< 0.01	423* %	524* %	24			
natalizumab: recombinant humanized neutralizing IgG4 monoclonal antibody that binds the α4-subunit of α4β1 (VLA-4) and α4β7 integrins					rapid and sustained increase in circulating HSPCs		
COc1cc([C@@H]2c3cc4c(cc3[C@@H](O[C@@H]3O[C@@H]5CO[C@@H](C)O[C@H]5[C@H](O)[C@H]3O)[C@H]3COC(=O)[C@H]23)OCO4)cc(OC)c1O [Etoposide]		211* %	185* %	18			
c1cc(CN2CCCNCCNCCCNCC2)ccc1CN1CCCNCCNCCCNCC1 [AMD3100, 1,1′-[1,4-phenylene-bis(methylene)]-bis-1,4,8,11-tetraazacyclotetradecane]		332* %	412* %	31		strong inducer of mobilization of hematopoietic stem cells	several-fold
